Experimental data reported in ChEMBL document CHEMBL1139746, “Enzyme inhibition potency enhancement by active site metal chelating and hydrogen bonding induced conformation-restricted cyclopropanecarbonyl derivatives” (Bioorg Med Chem Lett, 2006).

Experiments:
[1] = target: 4-hydroxyphenylpyruvate dioxygenase (Sus scrofa, UniProt Q02110); assay: Inhibition of pig HPPD
[2] = target: Dihydroorotate dehydrogenase (quinone), mitochondrial (Rattus norvegicus, UniProt Q63707); assay: Inhibition of rat DHODH
Sequence of Dihydroorotate dehydrogenase (quinone), mitochondrial (Q63707 whole entry): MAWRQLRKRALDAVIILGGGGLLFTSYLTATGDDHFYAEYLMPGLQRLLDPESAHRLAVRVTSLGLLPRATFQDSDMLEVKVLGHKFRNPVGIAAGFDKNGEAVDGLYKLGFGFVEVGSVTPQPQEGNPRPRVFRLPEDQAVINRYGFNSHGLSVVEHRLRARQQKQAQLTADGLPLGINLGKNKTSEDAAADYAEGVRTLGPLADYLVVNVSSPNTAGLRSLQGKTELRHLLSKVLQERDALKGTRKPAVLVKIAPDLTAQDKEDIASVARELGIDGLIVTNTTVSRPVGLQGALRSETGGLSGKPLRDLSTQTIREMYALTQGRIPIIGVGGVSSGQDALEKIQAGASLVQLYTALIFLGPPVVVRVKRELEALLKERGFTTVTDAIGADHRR

Sequence of 4-hydroxyphenylpyruvate dioxygenase (Q02110 whole entry): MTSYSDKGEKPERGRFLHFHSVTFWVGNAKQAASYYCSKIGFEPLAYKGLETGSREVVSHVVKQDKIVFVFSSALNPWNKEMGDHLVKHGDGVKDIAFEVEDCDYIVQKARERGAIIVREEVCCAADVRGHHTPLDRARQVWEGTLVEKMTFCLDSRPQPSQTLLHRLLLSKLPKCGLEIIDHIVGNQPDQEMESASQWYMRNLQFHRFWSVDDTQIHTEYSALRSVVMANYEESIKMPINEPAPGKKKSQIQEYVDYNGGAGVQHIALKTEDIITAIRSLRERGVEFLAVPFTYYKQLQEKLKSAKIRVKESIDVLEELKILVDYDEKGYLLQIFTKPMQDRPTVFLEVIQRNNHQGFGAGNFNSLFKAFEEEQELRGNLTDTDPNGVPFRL

IC50 [1] | IC50 [2] | Structure (SMILES)
33.1 µM | – | O=C1CCCC(O)=C1C(=O)C1CCCC1
322 µM | – | O=C(c1c(O)c2ccccc2oc1=O)C1CC1
– | 0.295 µM | CC(C)/C(O)=C(\C#N)C(=O)Nc1ccc(C(F)(F)F)cc1
21 µM | – | O=C1CCCC(O)=C1C(=O)C1CCC1
